# Patent US20110098241A1, “RAPAMYCIN ANALOGS AS ANTI-CANCER AGENTS” (PONIARD PHARMACEUTICALS, INC., priority 2008, published 2011)
# Molecular target: T1, mTOR (UniProt P42346+P62942)
# T1 construct: purchased Calbiochem CBA055
# Assay: mTOR Assay Screening Protocol (K-LISA mTOR Activity Kit, inhibitor with FKBP12)
# Format: biochemical
# Conditions: mTOR Standard pre-incubated with inhibitor and FKBP12 (35-37 ug/ml); p70S6K-T389 phosphorylation ELISA, absorbance at 450 nm
# Experimental: mTOR Assay Screening Protocol
# Kit: Calbiochem Cat. No. CBA055: K-LISA mTOR Activity Kit
# The following table provides reagent preparation instructions to obtain the volume of Working Solutions (WS) required for 10 wells. Volumes can be scaled to process more samples and provide overage for pipetting error.
# Reagent Volume (per 10-well strip) Composition: mTOR Substrate WS: 1 ml Dilution factor: 1:400 FKBP12: Sigma F5398 FK-Binding Protein human, recombinant, expressed in Escherichia coli
# A. Protocol for mTOR Kinase Activity and Inhibitor Screening: 1. Remove the required number of strips from the Glutathione-Coated 96-Well Plate and place them in the 96-well frame. 2. Add 100 μl mTOR Substrate WS to each well and incubate for 1 h at room temperature. 3. When performing inhibitor screening/testing, pre-incubate 50 μl mTOR Standard (from step 2) with test inhibitor or wortmannin in a separate tube on ice for 20 min (for example 50 μl mTOR Standard with 1 μl Woltmannin, 50×). This pre-incubation can be carried out during the incubation in step 2. • For inhibitor testing: weigh out inhibitor and resuspend in DMSO to a concentration of 5 mM prior to addition to assay • Test concentrations for inhibitors in assay ranged from 10 uM-0.0048 uM (final concentrations) • Inhibitor reaction contained: mTOR Standard, inhibitor (at indicated concentration) and FKBP12 (at 35-37 ug/ml) • Dilutions of inhibitors made in TBS • Controls for assay include: mTOR Standard only, mTOR Substrate only (blank), FKBP12+mTOR Standard (no inhibitor), inhibitor compound+mTOR Standard (no FKBP12), 4. Aspirate contents of the wells and wash each well of the Glutathione-Coated 96-Well Plate with 200 μl TBS. Empty the contents of the wells into the sink and dry the wells by tapping the inverted plate on paper towels. Repeat for a total of 3 washes. 5. Add the following components to each well in the specified order: […]
# mTOR Standard or mTOR Sample* (diluted to assay range with phosphate-free buffer or water): 50 μl 2× Kinase Assay Buffer WS: 50 μl
# *Pre-incubated with inhibitor in step 3 or without inhibitor 6. Cover the plate with the Plate Sealer, mix with a plate shaker or equivalent for 30 seconds, and incubate for 30 minutes at 30° C. 7. Stop the kinase reaction by adding 10 μl Kinase Stop Solution to each well. (Reaction may also be stopped simply by discarding the contents of the wells). 8. Aspirate the contents of each well and wash with 200 μl Plate Wash (1×). Gently agitate the plate using a plate shaker or equivalent for 5 min. Empty the contents of the wells into the sink and dry the wells by tapping the inverted plate on paper towels. Wash the plate 2 more times without shaking the plate. 9. Add 100 μl Anti-p70S6K-T389 WS to each well, cover the plate with the Plate Sealer, and incubate 1 h at room temperature. 10. Wash the plate 4 times as outlined in step 8 without shaking the plate. 11. Add 100 μl HRP-Antibody Conjugate WS to each well, cover the plate with the Plate Sealer, and incubate 1 h at room temperature. 12. Wash the plate as outlined in step 10. 13. Add 100 μl TMB Substrate to each well, cover the plate with the Plate Sealer, and incubate 5-20 min at room temperature. 14. […] 15. Analyze data using Microsoft Excel and GraphPad Prism software.
# T1 sequence (P62942 2-108 limits assumed, other chains not shown): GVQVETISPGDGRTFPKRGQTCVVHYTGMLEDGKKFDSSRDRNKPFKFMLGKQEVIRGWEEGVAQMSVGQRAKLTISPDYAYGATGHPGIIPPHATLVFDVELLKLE
row,IC50 [nM],SMILES
1,10,"CO[C@H]1C[C@@H]2CC[C@@H](C)[C@@](O)(O2)C(=O)C(=O)N2CCCC[C@H]2C(=O)O[C@H]([C@H](C)C[C@@H]2CC[C@@H](OC(=O)NS(=O)(=O)N3CCOCC3)[C@H](OC)C2)CC(=O)[C@H](C)/C=C(\C)[C@@H](O)[C@@H](OC)C(=O)[C@H](C)C[C@H](C)/C=C/C=C/C=C/1C [Example 1, 42-O-[Morpholinosulfonylcarbamyl]-rapamycin]"
2,30,"CO[C@H]1C[C@@H]2CC[C@@H](C)[C@@](O)(O2)C(=O)C(=O)N2CCCC[C@H]2C(=O)O[C@H]([C@H](C)C[C@@H]2CC[C@@H](OC(=O)NS(=O)(=O)N(C)C)[C@H](OC)C2)CC(=O)[C@H](C)/C=C(\C)[C@@H](O)[C@@H](OC)C(=O)[C@H](C)C[C@H](C)/C=C/C=C/C=C/1C [Example 2, 42-O-[Dimethylaminosulfonylcarbamyl]-rapamycin]"
3,110,"CO[C@H]1C[C@@H]2CC[C@@H](C)[C@@](O)(O2)C(=O)C(=O)N2CCCC[C@H]2C(=O)O[C@H]([C@H](C)C[C@@H]2CC[C@@H](OC(=O)NS(=O)(=O)N(CCO)CCO)[C@H](OC)C2)CC(=O)[C@H](C)/C=C(\C)[C@@H](O)[C@@H](OC)C(=O)[C@H](C)C[C@H](C)/C=C/C=C/C=C/1C [Example 3, 42-O—[N,N-Bis(2-hydroxyethyl)aminosulfonylcarbamyl]-rapamycin]"
4,10,"CO[C@H]1C[C@@H]2CC[C@@H](C)[C@@](O)(O2)C(=O)C(=O)N2CCCC[C@H]2C(=O)O[C@H]([C@H](C)C[C@@H]2CC[C@@H](OC(=O)NS(=O)(=O)N3CC[C@@H](O)C3)[C@H](OC)C2)CC(=O)[C@H](C)/C=C(\C)[C@@H](O)[C@@H](OC)C(=O)[C@H](C)C[C@H](C)/C=C/C=C/C=C/1C [Example 4, 42-O—[(R)-3-hydroxypyrrolidin-1-ylsulfonylcarbamyl]-rapamyein]"
5,1,"CO[C@H]1C[C@@H]2CC[C@@H](C)[C@@](O)(O2)C(=O)C(=O)N2CCCC[C@H]2C(=O)O[C@H]([C@H](C)C[C@@H]2CC[C@@H](OC(=O)NS(=O)(=O)Nc3ccc(O)cc3)[C@H](OC)C2)CC(=O)[C@H](C)/C=C(\C)[C@@H](O)[C@@H](OC)C(=O)[C@H](C)C[C@H](C)/C=C/C=C/C=C/1C [Example 5, 42-O-[4-Hydroxyanilinsulfonylcarbamyl]-rapamycin]"
6,2500,"CO[C@H]1C[C@@H]2CC[C@@H](C)[C@@](O)(O2)C(=O)C(=O)N2CCCC[C@H]2C(=O)O[C@H]([C@H](C)C[C@@H]2CC[C@@H](OC(=O)N3CCN(C)CC3)[C@H](OC)C2)CC(=O)[C@H](C)/C=C(\C)[C@@H](O)[C@@H](OC)C(=O)[C@H](C)C[C@H](C)/C=C/C=C/C=C/1C [Example 6, 42-O-[4-Methylpiperazine-1-carboxy]-rapamycin]"
7,70,"CO[C@H]1C[C@@H]2CC[C@@H](C)[C@@](O)(O2)C(=O)C(=O)N2CCCC[C@H]2C(=O)O[C@H]([C@H](C)C[C@@H]2CC[C@@H](OC(=O)CN3CCC(O)CC3)[C@H](OC)C2)CC(=O)[C@H](C)/C=C(\C)[C@@H](O)[C@@H](OC)C(=O)[C@H](C)C[C@H](C)/C=C/C=C/C=C/1C [Example 8, 42-O-[2-(4-Hydroxypiperidin-1-yl)acetyl]-rapamycin]"
8,70,"CO[C@H]1C[C@@H]2CC[C@@H](C)[C@@](O)(O2)C(=O)C(=O)N2CCCC[C@H]2C(=O)O[C@H]([C@H](C)C[C@@H]2CC[C@@H](OC(=O)CN3CCC(CCO)CC3)[C@H](OC)C2)CC(=O)[C@H](C)/C=C(\C)[C@@H](O)[C@@H](OC)C(=O)[C@H](C)C[C@H](C)/C=C/C=C/C=C/1C [Example 13, 42-O-[2-(4-(2-Hydroxyethyl)piperidin-1-yl)acetyl]rapamycin]"
9,240,"CO[C@H]1C[C@@H]2CC[C@@H](C)[C@@](O)(O2)C(=O)C(=O)N2CCCC[C@H]2C(=O)O[C@H]([C@H](C)C[C@@H]2CC[C@@H](OC(=O)CN(CCO)CCO)[C@H](OC)C2)CC(=O)[C@H](C)/C=C(\C)[C@@H](O)[C@@H](OC)C(=O)[C@H](C)C[C@H](C)/C=C/C=C/C=C/1C [Example 14, 42-O-[2-(Bis(2-hydroxyethyl)amino)acetyl]-rapamycin]"
10,210,CO[C@H]1C[C@@H]2CC[C@@H](C)[C@@](O)(O2)C(=O)C(=O)N2CCCC[C@H]2C(=O)O[C@H]([C@H](C)C[C@@H]2CC[C@@H](OC(=O)N3CCC(O)CC3)[C@H](OC)C2)CC(=O)[C@H](C)/C=C(\C)[C@@H](O)[C@@H](OC)C(=O)[C@H](C)C[C@H](C)/C=C/C=C/C=C/1C [Example 15]
11,300,"CO[C@H]1C[C@@H]2CC[C@@H](C)[C@@](O)(O2)C(=O)C(=O)N2CCCC[C@H]2C(=O)O[C@H]([C@H](C)C[C@@H]2CC[C@@H](OC(=O)NCCN3CCOCC3)[C@H](OC)C2)CC(=O)[C@H](C)/C=C(\C)[C@@H](O)[C@@H](OC)C(=O)[C@H](C)C[C@H](C)/C=C/C=C/C=C/1C [Example 16, 42-O-(2-Morpholinoethylaminocarbonyl)-rapamycin]"
12,140,"CO[C@H]1C[C@@H]2CC[C@@H](C)[C@@](O)(O2)C(=O)C(=O)N2CCCC[C@H]2C(=O)O[C@H]([C@H](C)C[C@@H]2CC[C@@H](OCCCS(=O)(=O)N3CCOCC3)[C@H](OC)C2)CC(=O)[C@H](C)/C=C(\C)[C@@H](O)[C@@H](OC)C(=O)[C@H](C)C[C@H](C)/C=C/C=C/C=C/1C [Example 17, 42-O-[3-(Morpholinosulfonyl)propyl]-rapamycin]"

row,SMILES,IC50 [nM]
1,"CO[C@H]1C[C@@H]2CC[C@@H](C)[C@@](O)(O2)C(=O)C(=O)N2CCCC[C@H]2C(=O)O[C@H]([C@H](C)C[C@@H]2CC[C@@H](OC[Si](C)(C)C)[C@H](OC)C2)CC(=O)[C@H](C)/C=C(\C)[C@@H](O)[C@@H](OC)C(=O)[C@H](C)C[C@H](C)/C=C/C=C/C=C/1C [Example 11, 42-O-[Trimethylsilyl-methyl]-rapamycin]",2300
2,"CO[C@H]1C[C@@H]2CC[C@@H](C)[C@@](O)(O2)C(=O)C(=O)N2CCCC[C@H]2C(=O)O[C@H]([C@H](C)C[C@@H]2CC[C@@H](OCCOC[Si](C)(C)C)[C@H](OC)C2)CC(=O)[C@H](C)/C=C(\C)[C@@H](O)[C@@H](OC)C(=O)[C@H](C)C[C@H](C)/C=C/C=C/C=C/1C [Example 12, 42-O-[2-(Trimethylsilan-methoxy)-ethyl]-rapamycin]",30
